Reference: the supplement of paper PMC9938120

Key:
Test in all cases: drug sensitivity score (DSS3, normalised partial AUC of % inhibition dose-response) (DSS (score)); higher = more sensitive (stronger inhibition of viability); extreme values may be limits of the assay
FMOC02_1 = patient-derived low-grade serous ovarian cancer cells; details: 72 h; library: FO5A; assay format: 2D, 384-well, CellTiter-Glo
Summary of the method: (§1)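 Cells were dispensed onto 384-well flat clear-bottom plates already holding compounds at five concentrations over a 10,000-fold range, using patient-derived ovarian cancer cells at passage under 10. Incubation lasted 72 h at 37 °C in 5% CO2, after which CellTiter-Glo viability data were processed in Breeze. Higher drug sensitivity scores, each a partial area under the percent-inhibition dose-response curve divided by the log of the upper asymptote, mean more sensitive cells.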

FMOC02_2 = patient-derived low-grade serous ovarian cancer cells; details: 72 h; library: FO5A; assay format: 2D, 384-well, CellTiter-Glo
Summary of the method: as §1

FMOC02_3 = patient-derived low-grade serous ovarian cancer cells; details: 72 h; library: FO5A; assay format: 2D, 384-well, CellTiter-Glo
Summary of the method: as §1

FMOC03 = patient-derived mucinous ovarian cancer cells; details: 72 h; library: FO5A; assay format: 2D, 384-well, CellTiter-Glo
Summary of the method: as §1

FMOC04 = patient-derived high-grade serous ovarian cancer cells; details: 72 h; library: FO5A; assay format: 2D, 384-well, CellTiter-Glo
Summary of the method: as §1

FMOC06 = patient-derived mucinous ovarian cancer cells; details: 72 h; library: FO5A; assay format: 2D, 384-well, CellTiter-Glo
Summary of the method: as §1

FMOC09 = patient-derived high-grade serous ovarian cancer cells; details: 72 h; library: FO5A; assay format: 2D, 384-well, CellTiter-Glo
Summary of the method: as §1

FMOC11 = patient-derived high-grade serous ovarian cancer cells; details: 72 h; library: FO5A; assay format: 2D, 384-well, CellTiter-Glo
Summary of the method: as §1

FMOC14 = patient-derived high-grade serous ovarian cancer cells; details: 72 h; library: FO5A; assay format: 2D, 384-well, CellTiter-Glo
Summary of the method: as §1

FMOC17 = patient-derived low-grade serous ovarian cancer cells; details: 72 h; library: FO5A; assay format: 2D, 384-well, CellTiter-Glo
Summary of the method: as §1

FMOC22 = patient-derived mucinous ovarian cancer cells; details: 72 h; library: FO5A; assay format: 2D, 384-well, CellTiter-Glo
Summary of the method: as §1

FMOC24 = patient-derived high-grade serous ovarian cancer cells; details: 72 h; library: FO5A; assay format: 2D, 384-well, CellTiter-Glo
Summary of the method: as §1

FMOC25_1 = patient-derived low-grade serous ovarian cancer cells; details: 72 h; library: FO4B; assay format: 2D, 384-well, CellTiter-Glo
Summary of the method: as §1

FMOC25_2 = patient-derived low-grade serous ovarian cancer cells; details: 72 h; library: FO5A; assay format: 2D, 384-well, CellTiter-Glo
Summary of the method: as §1

FMOC27 = patient-derived low-grade serous ovarian cancer cells; details: 72 h; library: FO5A; assay format: 2D, 384-well, CellTiter-Glo
Summary of the method: as §1

FMOC28 = patient-derived low-grade serous ovarian cancer cells; details: 72 h; library: FO5A; assay format: 2D, 384-well, CellTiter-Glo
Summary of the method: as §1

SMILES | drug sensitivity score (FMOC02_1) | drug sensitivity score (FMOC02_2) | drug sensitivity score (FMOC02_3) | drug sensitivity score (FMOC03) | drug sensitivity score (FMOC04) | drug sensitivity score (FMOC06) | drug sensitivity score (FMOC09) | drug sensitivity score (FMOC11) | drug sensitivity score (FMOC14) | drug sensitivity score (FMOC17) | drug sensitivity score (FMOC22) | drug sensitivity score (FMOC24) | drug sensitivity score (FMOC25_1) | drug sensitivity score (FMOC25_2) | drug sensitivity score (FMOC27) | drug sensitivity score (FMOC28)
Oc1ccc2c(c1)CC[C@H](c1ccccc1)[C@@H]2c1ccc(OCCN2CCCC2)cc1 [Lasofoxifene] | 0 | 0 | 0 | 0 | 0 | 0 | 0 | 0 | 1.1 | 0 | 0 | 0 | 0 | 0 | 0 | 0
O=C(NC[C@H](O)CN1CCc2ccccc2C1)c1cc(NC2COC2)ncn1 | 0 | 0 | 1.3 | 0 | 0 | 0 | 0.3 | 0 | 0 | 0 | 1.8 | 0.5 | 1 | 0.2 | 1.1 | 0
O=C(O)CNC(=O)c1c(O)c2ccccc2n(Cc2ccccc2)c1=O [IOX-2] | 0.5 | 0.5 | 0 | 0 | 0 | 0 | 0 | 0 | 0 | 0 | 0 | 1.75 | 0 | 0.9 | 0 | 3.2
Nc1nc(N)c2nc(-c3cccc(O)c3)c(-c3cccc(O)c3)nc2n1 [TG100-115] | 0 | 0 | 1.4 | 0.1 | 0 | 0.4 | 0.3 | 0.4 | 0.7 | 1.1 | 0 | 0.1 | 0 | 0.7 | 0 | 0
O[C@H]1CC[C@H](Nc2ncc3nc(Nc4c(F)cc(F)cc4F)n([C@H]4CCOC4)c3n2)CC1 [Tanzisertib] | 2.3 | 1.6 | 1.1 | 0 | 0 | 0 | 0 | 0 | 0 | 0.8 | 0.1 | 1.45 | 0 | 0 | 0.1 | 0
CNC(=O)c1ccccc1Sc1ccc2c(/C=C/c3ccccn3)n[nH]c2c1 [Axitinib] | 1.9 | 0.5 | 0.1 | 2.1 | 0.45 | 0 | 0 | 0.1 | 0 | 0.3 | 1.2 | 2.15 | 0 | 0 | 0 | 0
CNC(=O)c1cccc2cc(Oc3ccnc4cc(OCC5(N)CC5)c(OC)cc34)ccc12 [Lucitanib] | 2.6 | 0.4 | 1.7 | 0.1 | 0.4 | 0.3 | 1.2 | 1.1 | 0 | 0.2 | 0.2 | 1.45 | 0.3 | 1.4 | 1.4 | 4.1
O=c1[nH]c(C2CCCN2)nc2c1oc1ccc(Cl)cc12 (centres undefined) | 2.7 | 0 | 3.9 | 0.3 | 0 | 0 | 0 | 0.4 | 0 | 0 | 0 | 0 | 2 | 0 | 0 | 4.4
Nc1nc(NC2CC2)cc(-c2cccc(Cl)c2Cl)n1 [TH588] | 3.4 | 5.2 | 5.4 | 0.4 | 1.15 | 0 | 1.2 | 2.2 | 0.2 | 3 | 2.3 | 0.2 | 2.1 | 2.2 | 2.3 | 5.7
c1cn2cc(-c3ccc4cn[nH]c4c3)nc(Nc3ccc(N4CCOCC4)cc3)c2n1 [Entospletinib] | 4.3 | 3.2 | 0 | 0 | 0 | 0 | 0 | 0.7 | 0 | 1.8 | 0 | 0 | 0.1 | 0 | 0 | 0
FC(F)(F)c1ccc(CNc2ccc(Cc3c[nH]c4ncc(Cl)cc34)cn2)cn1 [Pexidartinib] | 3.9 | 2.5 | 3.1 | 0 | 0.1 | 0.9 | 4.1 | 2.6 | 0 | 1.4 | 0.3 | 1.3 | 1.6 | 0 | 0 | 0.1
CC(=O)N(O)CCCCCNC(=O)CCC(=O)N(O)CCCCCNC(=O)CCC(=O)N(O)CCCCCN [Deferoxamine] | 0 | 0 | 0.2 | 4.1 | 0 | 1.4 | 1.4 | 4.5 | 1.2 | 0 | 1.1 | 0 | 1.1 | 0 | 0 | 0
CC(C)c1c(C(=O)Nc2ccccc2)c(-c2ccccc2)c(-c2ccc(F)cc2)n1CC[C@@H](O)C[C@@H](O)CC(=O)O [Atorvastatin] | 1 | 1.9 | 1.5 | 2.9 | 0.65 | 1.6 | 4.9 | 3.1 | 3.2 | 2.9 | 4.5 | 6.75 | 0.6 | 3.2 | 0 | 5.3
NC(=O)c1cccc(-c2cccc(OC(=O)NC3CCCCC3)c2)c1 [URB597] | 0 | 0 | 0.2 | 0 | 0 | 0 | 0 | 0 | 0 | 0 | 0 | 0 | 0 | 0 | 0 | 0
CCNC(=O)CCC/C=C\C[C@@H]1[C@@H](/C=C/[C@@H](O)CCc2ccccc2)[C@H](O)C[C@@H]1O [Bimatoprost] | 0 | 0 | 0 | 0 | 0 | 0 | 0 | 0 | 0 | 0 | 0 | 0 | 0 | 0 | 0 | 0
Cc1cc(Nc2ncc(Cl)c(Nc3ccccc3S(=O)(=O)C(C)C)n2)c(OC(C)C)cc1C1CCNCC1 [Ceritinib] | 2.6 | 4.2 | 4.3 | 1.5 | 3.15 | 3.7 | 3.1 | 0.5 | 0 | 2.4 | 1.7 | 0.35 | 0.6 | 4.8 | 2.2 | 0
CCCC(CCC)C(=O)O [Valproic acid] | 0 | 0 | 0 | 0 | 0 | 0 | 0 | 0 | 0 | 0 | 0 | 0 | 0 | 0 | 0 | 0.1
Cc1cn(-c2cc(NC(=O)c3ccc(C)c(Nc4nccc(-c5cccnc5)n4)c3)cc(C(F)(F)F)c2)cn1 [Nilotinib] | 3 | 1.3 | 0 | 3.5 | 0 | 3.4 | 0.7 | 4.6 | 0.9 | 2.4 | 1 | 3.7 | 3.4 | 1.5 | 2.3 | 5.6
c1cc(CN2CCCNCCNCCCNCC2)ccc1CN1CCCNCCNCCCNCC1 [Plerixafor] | 0 | 0 | 0 | 0 | 0 | 0 | 0 | 0 | 0 | 0 | 0 | 0 | 0 | 0 | 0 | 0
NS(=O)(=O)NCCNc1nonc1/C(=N/O)Nc1ccc(F)c(Br)c1 [Epacadostat] | 0 | 0 | 0.4 | 0 | 0 | 0.1 | 0 | 0 | 0 | 0 | 0 | 0.1 | 0 | 0 | 0 | 0.9
CC(C)(C)Cn1c(N)nc2ccc(-c3[nH]c(C(C)(C)C)nc3-c3ccc(F)cc3)nc21 [Ralimetinib] | 6.6 | 4.3 | 3.4 | 2.7 | 1.05 | 3.1 | 1.9 | 6.5 | 2.2 | 4.4 | 0.4 | 1.95 | 1.1 | 3.4 | 3.2 | 1.1
Cn1cc(-c2cnn3c(N)c(Br)c([C@@H]4CCCNC4)nc23)cn1 [MK-8776] | 2 | 0 | 1.5 | 0 | 2.45 | 0 | 0 | 2.4 | 0.9 | 0.6 | 0 | 0.3 | 1.4 | 2.8 | 0 | 2.5
N#CC(c1ccnc(OCc2ccc(CN3CCOCC3)cc2)n1)c1nc2ccccc2s1 (centres undefined) [Bentamapimod] | 1.1 | 0.9 | 1.7 | 2.8 | 0.4 | 2 | 2.9 | 3.2 | 2.3 | 4.2 | 2 | 5.8 | 0.7 | 1 | 0 | 3.8
COCC1(CO)C(=O)C2CCN1CC2 (centres undefined) [APR-246] | 0 | 0 | 0 | 0 | 0 | 0 | 0 | 0 | 0 | 0 | 0 | 0.05 | 0 | 0 | 0 | 0
